# Laboratory results as given in patent US20230271949A1, “GLP-1R MODULATING COMPOUNDS” (ASCLETIS BIOSCIENCE CO., LTD., priority 2022, published 2023).
# Molecular target: GLP-1R (Homo sapiens, UniProt P43220)
# Assay: GLP-1R agonist cAMP stimulation assay (HTRF cAMP)
# Type: cell-based
# Conditions: HEK293 cell line expressing GLP-1 target; HTRF cAMP agonist mode, 30 min at RT
# Experimental: cAMP Detection Kit, Cisbio (Cat #62AM4PEJ)
# The cell line was constructed by WuXi.
# 2. Methods • a) The compound source plate preparation: • The reference 7-37 was diluted from 500 nM, 4-fold, 10 points in DMSO using Bravo. The compounds were diluted from […], 3-fold, 10 points in DMSO using Bravo. • b) Transfer of compounds: • 1) Use Echo transfer 100 nL cpd to the OptiPlate-384 plate. • 2) Spin the plates at 1000 rpm for 5 sec. • c) Cell suspension preparation: • 1) Thaw 1 vial of GLP-1 cells rapidly in 37° C. water bath. • 2) Transfer cell suspension into 10 ml of HBSS in a 15 ml conical tube. • 3) Centrifuge cells at 1000 rpm for 5 min at room temperature to pellet cells • 4) Gently aspirate supernatant being careful not to aspirate cells. • 5) Flick pellet to loose cells and re-suspend the cell pellet in 10 ml HBSS. Use a sterile pipette to pipette up and down to dislodge clumps. • 6) Count cells for concentration and to determine cell viability on Vi-cell. • 7) Re-suspend the GLP-1 cells in assay buffer at a concentration of 1.0×E5/mL cells. • 8) Transfer 10 μL GLP-1 cells to OptiPlate-384 plate. • d) HTRF cAMP Assay for agonist: • 1) Incubate the plate at RT for 30 min before adding the detection reagent. • 2) Add 10 μL each of detection reagent using Electric Multiple Channel Pipette. • 3) Cover the 384 plate with TopSeal-A film and incubate for 60 minutes at room temperature. • Remove the TopSeal-A, read on EnVision.
# Create a new log (Inhibitor) vs response—Variable slope mode in Prism5.0 software, substitute the standard curve concentration (x) and its corresponding 665/615 data (y) into the model, convert the standard curve concentration (abscissa) by x=log(x), and make the standard curve through the converted xy.
# Transform the data of 665/615 in the whole plate into a column of data, substitute it into y in the table of standard curve concentration (x) and 665/615 data (y), copy the x (interpolatedx) corresponding to automatic conversion by the software into a table, convert it into cAMP level by the formula x=10^(x), and reset the data into 384 distribution.
# % Activity=(cAMP level−LC)/(HC−LC)*100% • Z factor: 1-3*(STD_HC+[…])/(HC-LC) • Assay Window: HC/LC • LC: The average cAMP level of adding DMSO wells • HC: The average cAMP level of adding the top concentration of reference compounds wells.
# Create a new […] in Prism5.0 software, substitute the sample concentration (x) and its corresponding % Activity data (y) into the model, convert the standard curve concentration (abscissa) to x=log(x), and make the sample curve through the converted xy.
# Chain of GLP-1R (P43220 24-463): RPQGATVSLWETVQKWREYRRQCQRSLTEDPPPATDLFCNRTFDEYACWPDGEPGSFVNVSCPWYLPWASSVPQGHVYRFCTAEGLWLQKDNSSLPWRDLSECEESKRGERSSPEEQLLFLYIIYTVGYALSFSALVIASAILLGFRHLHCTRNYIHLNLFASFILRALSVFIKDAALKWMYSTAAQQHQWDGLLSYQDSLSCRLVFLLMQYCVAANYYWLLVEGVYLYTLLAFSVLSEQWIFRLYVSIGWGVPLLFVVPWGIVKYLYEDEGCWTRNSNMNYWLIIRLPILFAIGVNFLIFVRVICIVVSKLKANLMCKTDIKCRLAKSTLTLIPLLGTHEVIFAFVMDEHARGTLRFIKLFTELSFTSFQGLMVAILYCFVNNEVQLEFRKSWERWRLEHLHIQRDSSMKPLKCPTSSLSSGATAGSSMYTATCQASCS
row,EC50,Structure (SMILES)
1,6.75 nM,O=C(NCC(=O)N1CC[C@H]1C(=O)O)c1ccc2c(c1)nc(CN1CCC(c3cccc(OCc4ccc(Cl)cc4F)n3)CC1)n2C[C@@H]1CCO1 [Compound 61]
2,0.82 nM,O=C(Nc1ccc2c(c1)nc(CN1CC=C(c3cccc(OCc4ccc(Cl)cc4F)n3)CC1)n2C[C@@H]1CCO1)c1ccc2[nH]nc(C3CC3)c2c1 [Compound 216]
3,31.8 nM,O=C(Nc1ccc2c(c1)nc(C(F)(F)N1CC=C(c3cccc(OCc4ccc(Cl)cc4F)n3)CC1)n2C[C@@H]1CCO1)c1ccc2[nH]nc(C3CC3)c2c1 [Compound 258]
4,0.39 nM,Cc1cc(NC(=O)c2ccc3c(c2)nc(CN2CCC(c4cccc5c4OC(C)(c4ccc(Cl)cc4F)O5)CC2)n3C[C@@H]2CCO2)cc2[nH]c(=O)[nH]c12 (some centres unmarked) [Compound 339]
5,993 nM,COCCn1c(Cc2ccc(-c3cccc(OCc4ccc(C#N)cc4F)n3)cc2)nc2cc(C(=O)NCCc3ccc(C(=O)NCCc4ccc(C(=O)O)cc4)cc3)ccc21 [Compound 10]
6,0.55 nM,Cc1cc(NC(=O)c2ccc3c(c2)nc(CN2CC=C(c4cccc(OCc5ccc(Cl)cc5F)n4)CC2)n3C[C@@H]2CCO2)cc2c1NC(=O)C21CC1 [Compound 155]
7,1.14 nM,N#Cc1ccc(COc2cccc(C3CCN(Cc4nc5cc(C(=O)Nc6cc(F)c7[nH]ncc7c6)ccc5n4C[C@@H]4CCO4)CC3)n2)c(F)c1 [Compound 129]
8,21.8 nM,O=C(Nc1cnn2[nH]ccc12)c1ccc2c(c1)nc(CN1CC=C(c3cccc(OCc4ccc(Cl)cc4F)n3)CC1)n2C[C@@H]1CCO1 [Compound 401]
9,0.41 nM,Cc1n[nH]c2c(C)cc(C(=O)Nc3ccc4c(c3)nc(CN3CC=C(c5cccc(OCc6ccc(C#N)c7cc(Cl)oc67)n5)CC3)n4C[C@@H]3CCO3)cc12 [Compound 357]
10,0.25 nM,O=C(Nc1ccc2c(c1)nc(CN1CC=C(c3cccc(OCc4ccc(Cl)cc4F)n3)CC1)n2C[C@@H]1CCO1)c1cc(F)c2c(c1)C1(CC1)C(=O)N2 [Compound 208]
11,61 nM,COCCn1c(CN2CCC(c3cccc(OCc4ccc(Cl)cc4F)n3)CC2)nc2cc(C(=O)NCc3ccc(O)c(O)c3)ccc21 [Compound 33]
12,0.98 nM,Cc1n[nH]c2c(Cl)cc(NC(=O)c3ccc4c(c3)nc(CN3CC=C(c5cccc(OCc6ccc(Cl)cc6F)n5)CC3)n4C[C@@H]3CCO3)cc12 [Compound 160]
13,1.41 nM,C[C@H](NC(=O)c1ccc2c(c1)nc(CN1CCC(c3cccc(OCc4ccc(Cl)cc4F)n3)CC1)n2C[C@@H]1CCO1)C(=O)N1C[C@H](O)C[C@H]1C(=O)O [Compound 57]
14,31.9 nM,Cc1n[nH]c2ccc(C(=O)Nc3ccc4c(c3)nc(Cc3ccc(-c5cccc6c5OC(C)(c5ccc(Cl)cc5F)O6)s3)n4C[C@@H]3CCO3)cc12 (some centres unmarked) [Compound 322]
15,0.9 nM,Cc1c(C#N)sc(COc2cccc(C3=CCN(Cc4nc5cc(NC(=O)c6ccc7[nH]nc(C)c7c6)ccc5n4C[C@@H]4CCO4)CC3)n2)c1F [Compound 361]
16,2.47 nM,O=C(CNC(=O)c1ccc2c(c1)nc(CN1CCC(c3cccc(OCc4ccc(Cl)cc4F)n3)CC1)n2C[C@@H]1CCO1)N[C@@H](CO)C(=O)O [Compound 49]
17,1.33 nM,O=C(Nc1cc(F)c2[nH]ncc2c1)c1ccc2c(c1)nc(CN1CCC(c3cccc(OCc4ccc(Cl)cc4F)n3)CC1)n2C[C@@H]1CCO1 [Compound 102]
18,70.5 nM,COC(=O)[C@@H]1CC(F)(F)CN1C(=O)CNC(=O)c1ccc2c(c1)nc(CN1CC=C(c3cccc(OCc4ccc(Cl)cc4F)n3)CC1)n2C[C@@H]1CCO1 [Compound 69]
19,9.19 nM,Cc1n[nH]c2ccc(NC(=O)c3ccc4c(c3)nc(CN3CC=C(c5cccc(OCc6c(F)cnc7ccccc67)n5)CC3)n4C[C@@H]3CCO3)cc12 [Compound 368]
20,1.21 nM,Cc1n[nH]c2ccc(NC(=O)c3ccc4c(c3)nc(CN3CC=C(c5cccc6c5O[C@](C)(c5ccc(Cl)cc5F)O6)CC3)n4C[C@@H]3CCO3)cc12 [Compound 6]
21,3.87 nM,Cc1n[nH]c2ncc(C(=O)Nc3ccc4c(c3)nc(CN3CC=C(c5cccc(OCc6ccc(C#N)cc6F)n5)CC3)n4C[C@@H]3CCO3)cc12 [Compound 234]
22,23.2 nM,O=C(Nc1nc2[nH]cnc2s1)c1ccc2c(c1)nc(CN1CC=C(c3cccc(OCc4ccc(Cl)cc4F)n3)CC1)n2C[C@@H]1CCO1 [Compound 403]

row,EC50,Structure (SMILES)
1,8.92 nM,COc1n[nH]c2ccc(NC(=O)c3ccc4c(c3)nc(CN3CC=C(c5cccc(OCc6ccc(Cl)cc6F)n5)CC3)n4C[C@@H]3CCO3)cc12 [Compound 138]
2,0.92 nM,Cc1cc(NC(=O)c2ccc3c(c2)nc(CN2CCC(c4cccc(OCc5ccc(Cl)cc5F)n4)CC2)n3C[C@@H]2CCO2)cc2c(C(F)F)n[nH]c12 [Compound 116]
3,21.1 nM,Cc1cc2cc(C(=O)Nc3ccc4c(c3)nc(CN3CC=C(c5cccc(OCc6ccc(Cl)cc6F)n5)CC3)n4C[C@@H]3CCO3)ccc2[nH]1 [Compound 394]
4,2.97 nM,CC(C)c1n[nH]c2ccc(NC(=O)c3ccc4c(c3)nc(CN3CC=C(c5cccc(OCc6ccc(Cl)cc6F)n5)CC3)n4C[C@@H]3CCO3)cc12 [Compound 140]
5,0.21 nM,Cc1cc(C(=O)Nc2ccc3c(c2)nc(CN2CCC(c4cccc5c4OC(C)(c4ccc(Cl)cc4F)O5)CC2)n3C[C@@H]2CCO2)cc2[nH]c(=O)[nH]c12 (some centres unmarked) [Compound 345]
6,3.19 nM,O=C(Nc1ccc2c(c1)C1(CC1)C(=O)N2)c1ccc2nc(CN3CC=C(c4cccc(OCc5ccc(Cl)cc5F)n4)CC3)n(C[C@@H]3CCO3)c2c1 [Compound 266]
7,74.3 nM,O=C(Nc1ccn2nccc2c1)c1ccc2c(c1)nc(CN1CCC(c3cccc(OCc4ccc(Cl)cc4F)n3)CC1)n2CC1CCO1 (centres unmarked) [Compound 96]
8,> 10000 nM,COCCn1c(CN2CCC(c3cccc(OCc4ccc(Cl)cc4F)n3)CC2)nc2cc(C(=O)NCc3ccc(O)c(C(=O)OC)c3)ccc21 [Compound 36]
9,1.61 nM,Cc1cc2c(Cl)ccc(COc3cccc(C4=CCN(Cc5nc6cc(C(=O)Nc7cc(C)c8[nH]nc(C(F)F)c8c7)ccc6n5C[C@@H]5CCO5)CC4)n3)c2o1 [Compound 349]
10,0.82 nM,CC(C)c1n[nH]c2ccc(C(=O)Nc3ccc4c(c3)nc(CN3CC=C(c5cccc(OCc6ccc(Cl)cc6F)n5)CC3)n4C[C@@H]3CCO3)cc12 [Compound 200]
11,3.1 nM,CCn1cncc1Cn1c(Cc2c(F)cc(-c3cccc4c3O[C@](C)(c3ccc(Cl)cn3)O4)cc2F)nc2cc(NC(=O)c3cc(F)c4[nH]nc(C)c4c3)ccc21 [Compound 412]
12,0.41 nM,Cc1n[nH]c2c(F)cc(NC(=O)c3ccc4c(c3)nc(CN3CC=C(c5cccc(OCc6cc(F)c(C#N)s6)n5)CC3)n4C[C@@H]3CCO3)cc12 [Compound 363]
13,25.6 nM,O=C(NCCc1ccc(O)cc1)c1ccc2c(c1)nc(CN1CCC(c3cccc(OCc4ccc(Cl)cc4F)n3)CC1)n2C[C@@H]1CCO1 [Compound 15]
14,39.9 nM,Cc1n[nH]c2c(C)cc(NC(=O)c3cc4c(nc(CN5CC=C(c6cccc(OCc7ccc(Cl)cc7F)n6)CC5)n4C[C@@H]4CCO4)s3)cc12 [Compound 405]
15,1.65 nM,Cc1n[nH]c2c(F)cc(NC(=O)c3ccc4nc(CN5CC=C(c6cccc(OCc7ccc(C#N)cc7F)n6)CC5)n(CC5CCO5)c4c3)cc12 (centres unmarked) [Compound 274]
16,1.99 nM,Cc1nc2cccc(COc3cccc(C4CCN(Cc5nc6cc(C(=O)Nc7ccc8[nH]nc(C)c8c7)ccc6n5C[C@@H]5CCO5)CC4)n3)c2s1 [Compound 381]
17,3.18 nM,Cc1n[nH]c2ccc(C(=O)Nc3ccc4nc(CN5CC=C(c6cccc(OCc7ccc(Cl)cc7F)n6)CC5)n(CC5CCO5)c4c3)cc12 (centres unmarked) [Compound 278]
18,1.03 nM,O=C(Nc1cc(C(F)(F)F)c2[nH]ncc2c1)c1ccc2c(c1)nc(CN1CC=C(c3cccc(OCc4ccc(Cl)cc4F)n3)CC1)n2C[C@@H]1CCO1 [Compound 158]
19,1.83 nM,O=C(Nc1cc(C(F)(F)F)c2c(c1)C1(CC1)C(=O)N2)c1ccc2c(c1)nc(CN1CCC(c3cccc(OCc4ccc(Cl)cc4F)n3)CC1)n2C[C@@H]1CCO1 [Compound 107]
20,1.21 nM,O=C(Nc1ccc2c(c1)nc(CN1CC=C(c3cccc(OCc4ccc(Cl)cc4F)n3)CC1)n2C[C@@H]1CCO1)c1ccc2[nH]nc(C(F)F)c2c1 [Compound 219]
21,24 nM,Cn1c(=O)[nH]c2ccc(NC(=O)c3ccc4c(c3)nc(CN3CC=C(c5cccc(OCc6ccc(Cl)cc6F)n5)CC3)n4C[C@@H]3CCO3)cc21 [Compound 146]

row,Structure (SMILES),EC50
1,Cc1n[nH]c2ccc(C(=O)Nc3ccc4c(c3)nc(CN3CC=C(c5cccc(OCc6ccc(Cl)cn6)n5)CC3)n4C[C@@H]3CCO3)cc12 [Compound 198],0.35 nM
